Reference: ChEMBL document CHEMBL5329165, “Design, synthesis and biological evaluation of phenanthridine amide and 1,2,3-triazole analogues against Mycobacterium tuberculosis” (RSC Med Chem, 2023)
In brackets after ≈: the same amount, converted by molar mass.

System: Mycobacterium tuberculosis
Assay: Antimycobacterial activity against Mycobacterium tuberculosis H37Ra transformed with pSMT1 luciferase reporter plasmid incubated for 7 days by luminometric assay
Format: functional
Details: 168 h, time 7 day

For O=C(Nc1ccc(N2CCN(C(=O)c3cnccn3)CC2)nc1)c1ccccc1, the MIC was 1.46 µM (≈ 0.567 µg/mL).
